The text below walks through data of patent publication US20260108483A1, “METHODS AND COMPOSITIONS FOR PREVENTING THE PROGRESSION OF DIABETIC RETINOPATHY AND RELATED CONDITIONS” (Opus Genetics, Inc., priority 2023, published 2026).

This assay relates to diabetic retinopathy (moderately severe to severe NPDR or mild PDR). The assay is described as follows: Phase 2 placebo-controlled clinical study: three or more step worsening in binocular Diabetic Retinopathy Severity Scale Score. The class given is in vivo, human. The conditions noted are these: weeks 12 and 24; 600 mg/day oral (3+2 tablets of 120 mg) vs placebo. The source says: Ability of Compound 1 to prevent the progression of non-proliferative diabetic retinopathy (NPDR) and mild proliferative diabetic retinopathy (PDR) may be evaluated according to a clinical study in which Compound 1 was orally administered to patients suffering from non-proliferative diabetic retinopathy or mild proliferative diabetic retinopathy. Compound 1 has the chemical name (E)-2-((4,5-dimethoxy-2-methyl-3,6-dioxocyclohexa-1,4-dien-1-yl)methylene)undecanoic acid, and is depicted by the following chemical formula: The study was configured as a placebo-controlled, double-masked, randomized, Phase 2 study in approximately 100 subjects with moderately severe to severe NPDR (diabetic retinopathy severity score [DRSS] Level 47 or 53, see FIG. 1) or mild PDR (DRSS Level 61), evaluating safety and efficacy following administration of Compound 1 twice daily for 24 weeks. The study was configured for a 1:1 randomization (placebo: Compound 1). Randomization was stratified by level of disease severity (NPDR or PDR). Subjects with mild PDR were capped at 20% for each arm. Efficacy evaluations at 12 and/or 24 weeks included DRSS, center-involved diabetic macular edema (DME), moderate PDR or PDR-related adverse events (AEs), best-corrected visual acuity (BCVA), and central subfield thickness (CST). Further experimental procedures and results are described below. […]

Take `CCCCCCCCC/C(=C\C1=C(C)C(=O)C(OC)=C(OC)C1=O)C(=O)O` [Compound 1, (E)-2-((4,5-dimethoxy-2-methyl-3,6-dioxocyclohexa-1,4-dien-1-yl)methylene)undecanoic acid]: the “preventing the progression of diabetic retinopathy (patients with three or more step worsening in binocular DRSS, FIG. 3)” value was “effective in preventing the progression of diabetic retinopathy”.
